The source of these data is patent US20240252488A1 (KOREA RESEARCH INSTITUTE OF CHEMICAL TECHNOLOGY, priority 2020, published 2024).

The target in assay [1] is T1, MLKL (Homo sapiens, UniProt Q8NB16).
T1 sequence (Q8NB16 1-471): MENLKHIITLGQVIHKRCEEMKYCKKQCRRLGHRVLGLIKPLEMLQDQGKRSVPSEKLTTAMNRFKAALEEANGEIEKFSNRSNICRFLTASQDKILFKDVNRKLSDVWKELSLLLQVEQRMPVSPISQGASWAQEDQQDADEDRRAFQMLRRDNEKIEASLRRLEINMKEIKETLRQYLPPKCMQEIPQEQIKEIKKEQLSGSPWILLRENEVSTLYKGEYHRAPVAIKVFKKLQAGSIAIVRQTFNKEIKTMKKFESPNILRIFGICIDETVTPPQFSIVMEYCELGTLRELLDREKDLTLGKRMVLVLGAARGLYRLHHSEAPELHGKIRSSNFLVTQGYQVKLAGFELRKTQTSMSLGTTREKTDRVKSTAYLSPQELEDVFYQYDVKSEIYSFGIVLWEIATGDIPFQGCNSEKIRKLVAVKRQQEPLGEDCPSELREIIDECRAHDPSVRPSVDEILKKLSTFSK
Put plainly: MLKL degradation assay in HepG2 cell line (western blot). It is filed as cell-based. Details: endogenous in cells; host or cells: HepG2 or HaCaT. Particulars: cell line not given; for Degradation assay (Degradation %) 1 μM: compound 1 μM; for Degradation assay (Degradation %) 10 μM: compound 10 μM. In outline:
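HepG2 cells were treated 20-24 h at 37 °C with compound at 1 or 10 μM final. RIPA lysates were normalized by BCA, and 10-15 μg protein per lane was resolved by SDS-PAGE. MLKL was detected by western blot with chemiluminescence.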
In general terms: A western blot detects proteins with antibodies after separation by electrophoresis.

The test system of a further assay is FADD−/− Jurkat cells. Kind of assay: Necroptosis inhibition assay, TNF-α-induced necroptosis (CellTiter-Glo 2.0). The settings on record: TNF-α 15 ng/mL; for Necroptosis inhibition assay (Rescue %) 1 μM: compound 1 μM; for Necroptosis inhibition assay (Rescue %) 10 μM: compound 10 μM. The assay is classed as cell-based, human. Summed up: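 FADD−/− Jurkat cells preincubated 30 min at room temperature with compound at 0.1, 1 and 10 μM final, then stimulated with TNF-α (15 ng/mL final) for 20–24 h at 37 °C, 5% CO2. Viability read as ATP luminescence; cytotoxicity and necroptosis inhibition rate calculated from luminescence values.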
(Cellular ATP, detected with luciferase, serves as a proxy for viable cell number.)

The target in assay [2] is T1, MLKL. Put plainly: Measurement of binding affinity with MLKL receptor (competitive binding assay, Kd). Set-up: made in house; host or cells: HEK 293 cell line (T7 phage in E. coli BL21-derived host is also described). In outline: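 Kd comes from a bead-based competition format: compound-dependent loss of DNA-tagged, HEK 293-expressed MLKL capture, measured as eluate kinase by qPCR. Final DMSO is 0.9%.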

As usually defined, the Kd is a measure of binding affinity in units of concentration. Take `Nc1ncc(-c2cnn(C3CCN(CCOC4CCN(C(=O)CC5CCN(c6cccc7c6C(=O)N(C6CCC(=O)NC6=O)C7=O)CC5)CC4)CC3)c2)nc1C(=O)O[C@@H](C(=O)Nc1ccc(F)cc1)c1ccccc1` (stereo partly drawn) [TDH-371, (R)-2-((4-fluorophenyl)amino)-2-oxo-1-phenylethyl 3-amino-6-(1-(1-(2-((1-(2-(1-(2-(2,6-dioxopiperidin-3-yl)-1,3-dioxoisoindolin-4-yl)piperidin-4-yl)acetyl)piperidin-4-yl)oxy)ethyl)piperidin-4-yl)-1H-pyrazol-4-yl)pyrazine-2-carboxylate]: at MLKL [1], the “Degradation assay (Degradation %) 1 μM” value worked out at 82.38% and the “Degradation assay (Degradation %) 10 μM” value stood at 83.26%. Besides, in the assay with FADD−/− Jurkat cells, the “Necroptosis inhibition assay (Rescue %) 1 μM” value was determined as 35.76% and the “Necroptosis inhibition assay (Rescue %) 10 μM” value amounted to 25.74%. In addition, the Kd at MLKL [2] was determined as 3.7 nM.
For the molecule `Nc1ncc(-c2cnn(C3CCN(C(=O)CCC4CCN(C(=O)CCc5cccc6c5C(=O)N(C5CCC(=O)NC5=O)C6=O)CC4)CC3)c2)nc1C(=O)O[C@@H](C(=O)Nc1ccc(F)cc1)c1ccccc1` (stereo partly drawn) [TDH-431, (R)-2-((4-fluorophenyl)amino)-2-oxo-1-phenylethyl 3-amino-6-(1-(1-(3-(1-(3-(2-(2,6-dioxopiperidin-3-yl)-1,3-dioxoisoindolin-4-yl)propanoyl)piperidin-4-yl)propanoyl)piperidin-4-yl)-1H-pyrazol-4-yl)pyrazine-2-carboxylate], on MLKL [1], the “Degradation assay (Degradation %) 1 μM” value came out at 86.88% and the “Degradation assay (Degradation %) 10 μM” value is on record as 76.78%. For the same molecule, in the assay with FADD−/− Jurkat cells (FADD−/− Jurkat cells), the “Necroptosis inhibition assay (Rescue %) 1 μM” value stood at 37.24% and the “Necroptosis inhibition assay (Rescue %) 10 μM” value came to 17.64%. The Kd on MLKL [2] is 1 nM.
In the case of `Nc1ncc(-c2cnn(C3CCN(CCCCCCCCCCNC(=O)C4CN(c5ccc6c(c5)C(=O)N(C5CCC(=O)NC5=O)C6=O)C4)CC3)c2)nc1C(=O)O[C@@H](C(=O)Nc1ccc(F)cc1)c1ccccc1` (stereo partly drawn) [TDH-159, (R)-2-((4-fluorophenyl)amino)-2-oxo-1-phenylethyl 3-amino-6-(1-(1-(10-(1-(2-(2,6-dioxopiperidin-3-yl)-1,3-dioxoisoindolin-5-yl)azetidine-3-carboxamido)decyl)piperidin-4-yl)-1H-pyrazol-4-yl)pyrazine-2-carboxylate], at MLKL [1], the “Degradation assay (Degradation %) 10 μM” value is reported as 29.21%. In addition, in the assay with FADD−/− Jurkat cells, the “Necroptosis inhibition assay (Rescue %) 1 μM” value came to 33.57% and the “Necroptosis inhibition assay (Rescue %) 10 μM” value was 34.1%. Moreover, the Kd on MLKL [2] was determined as 18 nM.
Regarding `Nc1ncc(-c2cnn(C3CCN(C(=O)C4CCN(C(=O)CCc5ccc6c(c5)C(=O)N(C5CCC(=O)NC5=O)C6=O)CC4)CC3)c2)nc1C(=O)O[C@@H](C(=O)Nc1ccc(F)cc1)c1ccccc1` (stereo partly drawn) [TDH-381, (R)-2-((4-fluorophenyl)amino)-2-oxo-1-phenylethyl 3-amino-6-(1-(1-(1-(3-(2-(2,6-dioxopiperidin-3-yl)-1,3-dioxoisoindolin-5-yl)propanoyl)piperidine-4-carbonyl)piperidin-4-yl)-1H-pyrazol-4-yl)pyrazine-2-carboxylate], on MLKL [1], the “Degradation assay (Degradation %) 1 μM” value was found to be 78.38% and the “Degradation assay (Degradation %) 10 μM” value came out at 77.07%. In addition, in the assay with FADD−/− Jurkat cells, the “Necroptosis inhibition assay (Rescue %) 1 μM” value was 32.48% and the “Necroptosis inhibition assay (Rescue %) 10 μM” value is on record as 28.99%. The molecule further came in with a Kd at MLKL [2] of 1.5 nM.
Regarding `Nc1ncc(-c2cnn(C3CCN(CC4CCN(c5cc6c(cc5F)C(=O)N(C5CCC(=O)NC5=O)C6=O)CC4)CC3)c2)nc1C(=O)O[C@@H](C(=O)Nc1ccc(F)cc1)c1ccccc1` (stereo partly drawn) [TDH-519, (R)-2-((4-fluorophenyl)amino)-2-oxo-1-phenylethyl 3-amino-6-(1-(1-((1-(2-(2,6-dioxopiperidin-3-yl)-6-fluoro-1,3-dioxoisoindolin-5-yl)piperidin-4-yl)methyl)piperidin-4-yl)-1H-pyrazol-4-yl)pyrazine-2-carboxylate], at MLKL [1], the “Degradation assay (Degradation %) 1 μM” value turned out to be 89.40% and the “Degradation assay (Degradation %) 10 μM” value turned out to be 86.43%. Besides, in the assay with FADD−/− Jurkat cells (FADD−/− Jurkat cells), the “Necroptosis inhibition assay (Rescue %) 1 μM” value was 4.80% and the “Necroptosis inhibition assay (Rescue %) 10 μM” value is on record as 17.07%. On MLKL [2], this molecule had a Kd of 7.1 nM.
As to `Nc1ncc(-c2cnn(C3CCN(C(=O)CC4CCN(C(=O)C5CCN(c6ccc7c(c6)C(=O)N(C6CCC(=O)NC6=O)C7=O)CC5)CC4)CC3)c2)nc1C(=O)O[C@@H](C(=O)Nc1ccc(F)cc1)c1ccccc1` (stereo partly drawn) [TDH-342, (R)-2-((4-fluorophenyl)amino)-2-oxo-1-phenylethyl 3-amino-6-(1-(1-(2-(1-(1-(2-(2,6-dioxopiperidin-3-yl)-1,3-dioxoisoindolin-5-yl)piperidine-4-carbonyl)piperidin-4-yl)acetyl)piperidin-4-yl)-1H-pyrazol-4-yl)pyrazine-2-carboxylate], on MLKL [1], the “Degradation assay (Degradation %) 1 μM” value came out at 70.74% and the “Degradation assay (Degradation %) 10 μM” value is on record as 54.03%. In addition, in the assay on FADD−/− Jurkat cells, the “Necroptosis inhibition assay (Rescue %) 1 μM” value worked out at 28.05% and the “Necroptosis inhibition assay (Rescue %) 10 μM” value was found to be 17.55%. The affinity at MLKL [2], expressed as Kd, was 5.8 nM.
For `Nc1ncc(-c2cnn(C3CCN(CCC4CCN(c5cccc6nnn(C7CCC(=O)NC7=O)c(=O)c56)CC4)CC3)c2)nc1C(=O)OC(C(=O)Nc1ccc(F)cc1)c1ccccc1` (stereo not shown) [TDH-294, 2-((4-fluorophenyl)amino)-2-oxo-1-phenylethyl 3-amino-6-(1-(1-(2-(1-(3-(2,6-dioxopiperidin-3-yl)-4-oxo-3,4-dihydrobenzo[d][1,2,3]triazin-5-yl)piperidin-4-yl)ethyl)piperidin-4-yl)-1H-pyrazol-4-yl)pyrazine-2-carboxylate] the same measures were 25.53%, 23.63%, 67.12%, 33.24% and 4.7 nM.
The like results for `Nc1ncc(-c2cnn(C3CCN(CC4CCN(C(=O)CC5CCN(c6ccc7c(c6)C(=O)N(C6CCC(=O)NC6=O)C7=O)CC5)CC4)CC3)c2)nc1C(=O)O[C@@H](C(=O)Nc1ccc(F)cc1)c1ccccc1` (stereo partly drawn) [TDH-205, (R)-2-((4-fluorophenyl)amino)-2-oxo-1-phenylethyl 3-amino-6-(1-(1-((1-(2-(1-(2-(2,6-dioxopiperidin-3-yl)-1,3-dioxoisoindolin-5-yl)piperidin-4-yl)acetyl)piperidin-4-yl)methyl)piperidin-4-yl)-1H-pyrazol-4-yl)pyrazine-2-carboxylate] were, in that order, 57.56%, 36.05%, 59.88%, 41.34% and 6.7 nM.
Turning to `Nc1ncc(-c2cnn(C3CCN(C4CC5(CCN(CC6CCN(C(=O)Cc7cccc(NC8=CC(=O)N(C9CCC(=O)NC9=O)C8=O)c7)CC6)CC5)C4)CC3)c2)nc1C(=O)O[C@@H](C(=O)Nc1ccc(F)cc1)c1ccccc1` (stereo partly drawn) [TDH-500, (R)-2-((4-fluorophenyl)amino)-2-oxo-1-phenylethyl 3-amino-6-(1-(1-(7-((1-(2-(3-((1-(2,6-dioxopiperidin-3-yl)-2,5-dioxo-2,5-dihydro-1H-pyrrol-3-yl)amino)phenyl)acetyl)piperidin-4-yl)methyl)-7-azaspiro[3.5]nonan-2-yl)piperidin-4-yl)-1H-pyrazol-4-yl)pyrazine-2-carboxylate], on MLKL [1], the “Degradation assay (Degradation %) 1 μM” value is listed as 80.41% and the “Degradation assay (Degradation %) 10 μM” value is 83.21%. In the assay with FADD−/− Jurkat cells (FADD−/− Jurkat cells), the “Necroptosis inhibition assay (Rescue %) 1 μM” value came to 25.16% and the “Necroptosis inhibition assay (Rescue %) 10 μM” value was found to be 0.16%. At MLKL [2], this molecule gave a Kd of 0.64 nM.
For `Nc1ncc(-c2cnn(C3CCN(C(=O)CCC4CCN(C(=O)C5CN(c6cccc7c6C(=O)N(C6CCC(=O)NC6=O)C7=O)C5)CC4)CC3)c2)nc1C(=O)O[C@@H](C(=O)Nc1ccc(F)cc1)c1ccccc1` (stereo partly drawn) [TDH-427, (R)-2-((4-fluorophenyl)amino)-2-oxo-1-phenylethyl 3-amino-6-(1-(1-(3-(1-(1-(2-(2,6-dioxopiperidin-3-yl)-1,3-dioxoisoindolin-4-yl)azetidine-3-carbonyl)piperidin-4-yl)propanoyl)piperidin-4-yl)-1H-pyrazol-4-yl)pyrazine-2-carboxylate] the same measures were 75.94%, 59.59%, 5.57%, 9.73% and 2.4 nM.
